In patent US20150274664A1 (MERCK SHARP & DOHME CORP., priority 2012, published 2015):

Molecular target: T1, human GPR119 (Homo sapiens, UniProt Q8TDV5)
T1 construct: expressed in transfected cells; host or cells: HEK293
T1 sequence (Q8TDV5 1-335): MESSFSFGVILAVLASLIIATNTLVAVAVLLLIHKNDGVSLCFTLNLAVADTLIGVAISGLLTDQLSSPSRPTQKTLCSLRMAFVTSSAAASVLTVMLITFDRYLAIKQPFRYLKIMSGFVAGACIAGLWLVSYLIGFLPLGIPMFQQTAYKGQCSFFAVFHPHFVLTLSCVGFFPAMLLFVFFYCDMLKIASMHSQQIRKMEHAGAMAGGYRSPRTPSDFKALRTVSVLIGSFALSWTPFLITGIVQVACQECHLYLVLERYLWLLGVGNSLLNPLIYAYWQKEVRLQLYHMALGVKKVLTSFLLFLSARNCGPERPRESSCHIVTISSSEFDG
Assay: Measurement of GPR119 signaling using LANCE 384-well cAMP kit (LCMP assay)
Format: cell-based
Conditions: HEK293 cells stably transfected with human GPR119
Procedure: Measurement of GPR119 Signaling Using LANCE 384-Well cAMP Kit (LCMP Assay)
Human embryonic kidney (HEK) 293 cell lines stably transfected with human GPR119 were maintained in DMEM media containing FBS, penicillin-streptomycin, HEPES, and hygromycin. For the cAMP assay, the transfected cells were harvested using a non-enzymatic cell dissociation solution (GIBCO 2672), pelleted and resuspended in stimulation buffer (DMEM, 25 mM Hepes, 0.1% BSA, pH 7.4 in the presence of 100 μM phosphodiesterase inhibitors). The adenylate cyclase assay was constructed following the LANCE™ cAMP Kit (Perkin Elmer, AD0264) instructions. Briefly, cells with Alexa Fluor® 647-anti cAMP antibody were incubated with 10 point series diluted test article in stimulation buffer with a final concentration of 2.5% DMSO for 45 minutes. The reaction was stopped by incubating with the supplied detection buffer containing the europium chelate of the Eu-SA/Biotin-cAMP tracer for 3 hours. The assay was performed in duplicate in a 384 well plate for duplicate plates. Fluorescence at 665 nm was measured using a PHERAstar instrument. Basal activity was determined using a DMSO control and maximum response was defined as cAMP stimulation produced by an internal agonist control. Standard cAMP concentrations were assayed concurrently for conversion of fluorescence signal to cAMP level. The data was analyzed using 4-parameter curve fit in Microsoft Excel.

For `CCc1cnc(N2CCC([C@@H]3C[C@H]3CCOc3ccc(-n4cnnn4)cc3F)CC2)nc1` [Example 40, 5-ethyl-2-(4-((1S,2S)-2-(2-(2-fluoro-4-(1H-tetrazol-1-yl)phenoxy)ethyl)cyclopropyl)piperidin-1-yl)pyrimidine], the EC50 was 5 nM.

Compound `Fc1cc(-n2cnnn2)ccc1OCC[C@@H]1C[C@H]1C1CCN(c2ncc(Cl)cn2)CC1` [Example 41, 5-chloro-2-(4-((1S,2S)-2-(2-(2-fluoro-4-(1H-tetrazol-1-yl)phenoxy)ethyl)cyclopropyl)piperidin-1-yl)pyrimidine] has an EC50 of 5.6 nM.

For `O=C(Cc1ccc(OCC[C@@H]2C[C@H]2C2CCN(c3ncc(Cl)cn3)CC2)cc1F)N1CCC1` [Example 42, 1-(azetidin-1-yl)-2-(4-(2-((1S,2S)-2-(1-(5-chloropyrimidin-2-yl)piperidin-4-yl)cyclopropyl)ethoxy)-2-fluorophenyl)ethanone], the EC50 was 1.8 nM.

Work on `CCc1cnc(N2CCC([C@H]3C[C@@H]3CCOc3ccc(N4CCNC4=O)c(F)c3)CC2)nc1` [Example 43, 1-(4-(2-((1R,2R)-2-(1-(5-ethylpyrimidin-2-yl)piperidin-4-yl)cyclopropyl)ethoxy)-2-fluorophenyl)imidazolidin-2-one] yielded an EC50 of 9.6 nM.

Compound `CCc1cnc(N2CCC([C@H]3C[C@@H]3CCOc3ccc(CC(=O)N4CCC4)cc3F)CC2)nc1` [Example 44, 1-(azetidin-1-yl)-2-(4-(2-((1R,2R)-2-(1-(5-ethylpyrimidin-2-yl)piperidin-4-yl)cyclopropyl)ethoxy)-3-fluorophenyl)ethanone] has an EC50 of 2.9 nM.

`CCc1cnc(N2CCC([C@H]3C[C@@H]3CCOc3ccc(CC(=O)N4CCC4)c(F)c3)CC2)nc1` [Example 45, 1-(azetidin-1-yl)-2-(4-(2-((1R,2R)-2-(1-(5-ethylpyrimidin-2-yl)piperidin-4-yl)cyclopropyl)ethoxy)-2-fluorophenyl)ethanone] was tested, and the EC50 was 0.8 nM.

With `CCc1cnc(N2CCC([C@@H]3C[C@H]3CCOc3ccc(CC(=O)N(C)C)c(F)c3)CC2)nc1` [Example 46, 2-(4-(2-((1S,2S)-2-(1-(5-ethylpyrimidin-2-yl)piperidin-4-yl)cyclopropyl)ethoxy)-2-fluorophenyl)-N,N-dimethylacetamide] the EC50 was 4.4 nM.

Compound `CCc1cnc(N2CCC([C@H]3C[C@@H]3CCOc3ccc(CC(=O)N(C)C)c(F)c3)CC2)nc1` [Example 47, 2-(4-(2-((1R,2R)-2-(1-(5-ethylpyrimidin-2-yl)piperidin-4-yl)cyclopropyl)ethoxy)-2-fluorophenyl)-N,N-dimethylacetamide] has an EC50 of 2.9 nM.

In the case of `COCc1cnc(N2CCC([C@@H]3C[C@H]3CCOc3ccc(CC(=O)N4CCC4)c(F)c3)CC2)nc1` [Example 48, 1-(azetidin-1-yl)-2-(2-fluoro-4-(2-((1S,2S)-2-(1-(5-(methoxymethyl)pyrimidin-2-yl)piperidin-4-yl)cyclopropyl)ethoxy)phenyl)ethanone], the EC50 is reported as 8.5 nM.

`CCc1cnc(N2CCC([C@@H]3C[C@H]3CCOc3cc(F)c(CC(=O)N(C)C)c(F)c3)CC2)nc1` [Example 49, 2-(4-(2-((1S,2S)-2-(1-(5-ethylpyrimidin-2-yl)piperidin-4-yl)cyclopropyl)ethoxy)-2,6-difluorophenyl)-N,N-dimethylacetamide] showed an EC50 of 0.7 nM.

`CCc1cnc(N2CCC([C@@H]3C[C@H]3CCOc3cc(F)c(CC(=O)N4CCC4)c(F)c3)CC2)nc1` [Example 50, 1-(azetidin-1-yl)-2-(4-(2-((1S,2S)-2-(1-(5-ethylpyrimidin-2-yl)piperidin-4-yl)cyclopropyl)ethoxy)-2,6-difluorophenyl)ethanone] was tested, and the EC50 was 0.35 nM.

Compound `COCc1cnc(N2CCC([C@H]3C[C@@H]3CCOc3ccc(CC(=O)N4CCC4)c(F)c3)CC2)nc1` [Example 51, 1-(azetidin-1-yl)-2-(2-fluoro-4-(2-((1R,2R)-2-(1-(5-(methoxymethyl)pyrimidin-2-yl)piperidin-4-yl)cyclopropyl)ethoxy)phenyl)ethanone] has an EC50 of 3.4 nM.

`COCc1cnc(N2CCC([C@@H]3C[C@H]3CCOc3ccc(CC(=O)N(C)C)c(F)c3)CC2)nc1` [Example 52, 2-(2-fluoro-4-(2-((1S,2S)-2-(1-(5-(methoxymethyl)pyrimidin-2-yl)piperidin-4-yl)cyclopropyl)ethoxy)phenyl)-N,N-dimethylacetamide] showed an EC50 of 9.6 nM.

Compound `COCc1cnc(N2CCC([C@H]3C[C@@H]3CCOc3ccc(CC(=O)N(C)C)c(F)c3)CC2)nc1` [Example 53, 2-(2-fluoro-4-(2-((1R,2R)-2-(1-(5-(methoxymethyl)pyrimidin-2-yl)piperidin-4-yl)cyclopropyl)ethoxy)phenyl)-N,N-dimethylacetamide] has an EC50 of 5.9 nM.

With `CCc1cnc(N2CCC([C@H]3C[C@@H]3CCOc3cc(F)c(CC(=O)N4CCC4)c(F)c3)CC2)nc1` [Example 54, 1-(azetidin-1-yl)-2-(4-(2-((1R,2R)-2-(1-(5-ethylpyrimidin-2-yl)piperidin-4-yl)cyclopropyl)ethoxy)-2,6-difluorophenyl)ethanone] the EC50 was 0.25 nM.

In the case of `CCc1cnc(N2CCC([C@H]3C[C@@H]3CCOc3cc(F)c(CC(=O)N(C)C)c(F)c3)CC2)nc1` [Example 55, 2-(4-(2-((1R,2R)-2-(1-(5-ethylpyrimidin-2-yl)piperidin-4-yl)cyclopropyl)ethoxy)-2,6-difluorophenyl)-N,N-dimethylacetamide], the EC50 is reported as 0.34 nM.

`COCc1cnc(N2CCC([C@H]3C[C@@H]3CCOc3cc(F)c(CC(=O)N4CCC4)c(F)c3)CC2)nc1` [Example 56, 1-(azetidin-1-yl)-2-(2,6-difluoro-4-(2-((1R,2R)-2-(1-(5-(methoxymethyl)pyrimidin-2-yl)piperidin-4-yl)cyclopropyl)ethoxy)phenyl)ethanone] gave an EC50 of 0.4 nM.

With `COCc1cnc(N2CCC([C@H]3C[C@@H]3CCOc3cc(F)c(CC(=O)N(C)C)c(F)c3)CC2)nc1` [Example 57, 2-(2,6-difluoro-4-(2-((1R,2R)-2-(1-(5-(methoxymethyl)pyrimidin-2-yl)piperidin-4-yl)cyclopropyl)ethoxy)phenyl)-N,N-dimethylacetamide] the EC50 was 0.63 nM.

`Fc1cc(-n2cnnn2)ccc1OCC[C@H]1C[C@@H]1C1CCN(c2ncc(Cl)cn2)CC1` [Example 58, 5-chloro-2-(4-((1R,2R)-2-(2-(2-fluoro-4-(1H-tetrazol-1-yl)phenoxy)ethyl)cyclopropyl)piperidin-1-yl)pyrimidine] showed an EC50 of 11 nM.

`Fc1cc(OCC[C@@H]2C[C@H]2C2CCN(c3ncc(Cl)cn3)CC2)ccc1-n1cnnn1` [Example 59, 5-chloro-2-(4-((1S,2S)-2-(2-(3-fluoro-4-(1H-tetrazol-1-yl)phenoxy)ethyl)cyclopropyl)piperidin-1-yl)pyrimidine] gave an EC50 of 13 nM.

In the case of `CCc1cnc(N2CCC([C@H]3C[C@@H]3CCOc3ccc(-n4cnnn4)cc3F)CC2)nc1` [Example 60, 5-ethyl-2-(4-((1R,2R)-2-(2-(2-fluoro-4-(1H-tetrazol-1-yl)phenoxy)ethyl)cyclopropyl)piperidin-1-yl)pyrimidine], the EC50 is reported as 17 nM.

`O=C1NCCN1c1ccc(OCC[C@H]2C[C@@H]2C2CCN(c3ncc(Cl)cn3)CC2)cc1F` [Example 61, 1-(4-(2-((1R,2R)-2-(1-(5-chloropyrimidin-2-yl)piperidin-4-yl)cyclopropyl)ethoxy)-2-fluorophenyl)imidazolidin-2-one] gave an EC50 of 17 nM.

`CCc1cnc(N2CCC([C@@H]3C[C@H]3CCOc3ccc(CC(=O)N4CCC4)cc3F)CC2)nc1` [Example 62, 1-(azetidin-1-yl)-2-(4-(2-((1S,2S)-2-(1-(5-ethylpyrimidin-2-yl)piperidin-4-yl)cyclopropyl)ethoxy)-3-fluorophenyl)ethanone] gave an EC50 of 11 nM.
